Measurements from US5932709A (University of Michigan, priority 1997, dated 1999).
Values joined by “and” are separate entries in the source; they are usually repeats but may differ in a detail not shown here. Equal entries are not always repeated. Structures can show the parent of a compound that is named as a salt.

Tests used:
murine B16 melanoma = assay: Murine B16 melanoma model in vivo; design: species or system mouse (B6D2F1); conditions: for Survivors: 60-day
Procedure: 1) Murine B16 Melanoma Model
(§1) For the B16 melanoma model, the following procedure was used. B6D2F1 mice receive i.p. inocula of B16 murine melanoma brei prepared from B16 tumors growing s.c. in mice (day 0). […] If dosing information for agents is not available, the maximum tolerated dose (MTD) is determined in initial dose finding experiments in non-tumored mice.
(§2) The mean survival times of all groups are calculated, and results are expressed as mean survival of treated mice/mean survival of control mice (T/C)×100%. A T/C value of 150 means that the mice in the treated group lived 50% longer than those of the control group; this is sometimes referred to as the increase in life span or ILS value.
Mice that survive for 60 days are considered long-term survivors, or cures, in the B16 model. The universally accepted cut-off for activity in this model, which has been for years by the National Cancer Institute, is T/C=125. Conventional use of B16 over the years has set the following levels of activity: T/C<125, no activity, T/C=125-150, weak activity; T/C=150-200, modest activity; T/C=200-300, high activity; T/C>300, with long term survivors; excellent, curative activity.

murine P388 leukemia = assay: Murine P388 leukemia model in vivo; design: species or system mouse (B6D2F1)
Procedure: as §1, §2
For the P388 leukemia model, the procedure followed is exactly the same as the aforementioned B16 model. The tumor inoculum is prepared by removing ascited fluid containing P388 cells from tumored B6D2F1 mice, centrifuging the cells, and then resuspending the leukemia cells in saline. Mice receive 1×10^6 P388 cells i.p. on day 0.

[1] = tested on: MX-1 human breast tumor xenograft; assay: in vivo
Source text: For all the models, the vehicle used to deliver the analog of interest was isotonic saline.
For the MX-1 human breast tumor xenograft models, the following procedure was used. Nude mice are implanted s.c. by trocar with fragments of MX-1 mammary carcinomas harvested from s.c. growing MX-1 tumors in nude mice hosts. When tumors are approximately 5 mm×5 mm in size (usually about ten days after inoculation), the animals are pair-matched into treatment and control groups. Each group contains ten tumored mice, each of which is ear-tagged and followed individually throughout the experiment. The administration of drugs or vehicle begins the day the animals are pair-matched (day 1). The doses, route of drug administration and schedule are selected as appropriate for the study in question. If the MTD dose of an agent is not known, it is determined in an initial dosing experiment in non-tumored mice. In a typical experiment, drugs are given at their MTD and 1/2 MTD doses i.p. on a daily×5 schedule.
The experiment is usually terminated when control tumors reach a size of 2-3 g. Mice are weighed twice weekly, and tumor measurements are taken by calipers twice weekly, starting on day 1. These tumor measurements are converted to mg tumor weight by a well known formula, and from these calculated tumor weights the termination date can be determined. Upon termination, all mice are weighed, sacrificed, and their tumors excised. Tumors are weighed, and the mean tumor weight per group is calculated.
Some drugs cause tumor shrinkage in the MX-1 model. With these agents, the final weight of a given tumor is subtracted from its own weight at the start of the treatment on day 1. This difference divided by the initial tumor weight is the % shrinkage. A mean % tumor shrinkage can be calculated from data from the mice in a group that experienced MX-1 regressions. If the tumor completely disappears in a mouse, this is considered a complete regression or complete tumor shrinkage. If desired, mice with partial or total tumor regressions can be kept alive past the termination date to see whether they live to become long term, tumor-free survivors.
Note that in the following table the abbreviation SR refers to tumor shrinkage rate, while those entries followed by a superscripted `2` are tumor growth inhibition rates, not tumor shrinkage rates.

[2] = tested on: human lung tumor xenograft; assay: Human lung tumor xenograft model; type: in vivo, human tumor in nude mice
Source text: (§3) For the human lung and prostate tumor xenograft models the following procedure was used. Nude mice were implanted s.c. by trocar with fragments of human lung or prostate carcinomas harvested from s.c. growing tumors in nude mice hosts. When tumors were approximately 5 mm×5 mm in size (usually ten to fourteen days after inoculation), the animals were pair-matched into treatment and control groups. Each group contained 10 tumored mice, each of which was ear-tagged and followed individually throughout the experiment. […] The doses, route of drug administration and schedule were selected as appropriate for the study in question. (See above protocol). […] Topotecan was run as a positive control at its MTD dose on a daily×5 and a daily×1 schedule. Male nude mice were used for both prostate studies.
(§4) Mice are weighed twice weekly, and tumor measurements were taken by calipers twice weekly, starting on day 1.
(§5) Some drugs cause tumor shrinkage in the human tumor xenograft models. […] A mean % tumor shrinkage can be calculated from the data from the mice in a group that experienced tumor regressions.

[3] = tested on: human prostate tumor xenograft; assay: Human prostate tumor xenograft model; type: in vivo, human tumor in nude mice
Source text: as §3, §4, §5

[4] = as hydrochloride salt; cited from earlier work
topoisomerase I = conditions: TPT-HCl; Wall et al.; cited from earlier work
P388 murine leukemia = conditions: vs unmodified camptothecin, side by side; cited from earlier work
Lewis lung carcinoma = conditions: vs unmodified camptothecin, side by side; cited from earlier work
B16 murine melanoma = conditions: vs unmodified camptothecin, side by side; cited from earlier work
[5] = human, in vivo; cited from earlier work
carcinoma cells = conditions: in vitro clonogenic assay / tumor cell growth, in words; cited from earlier work
tumor growth = conditions: in words; cited from earlier work

With `CC[C@@]1(O)C(=O)OCc2c1cc1n(c2=O)Cc2cc3c(CN(C)C)c(O)ccc3nc2-1` [TPT, [(s)-9-dimethylaminomethyl-10-hydroxycamptothecin hydrochloride], reference compound] the “60-day survivors (cures)” value (murine B16 melanoma; 2 mg/kg) was “one”, the “T/C (mean survival treated/control)” value (murine B16 melanoma; 2 mg/kg i.p. daily×5) was 201% and the “Tox Deaths” value (murine B16 melanoma; 2 mg/kg i.p. daily×5) was 0/10. The “ΔWeight (%)” value (murine B16 melanoma; 2 mg/kg i.p. daily×5) was “+1.9%”, the Survivors (murine B16 melanoma; 2 mg/kg i.p. daily×5) was 1/10 and the “T/C (mean survival treated/control)” value (murine B16 melanoma; 2 mg/kg i.p. daily×5, listed as Topotecan) was 210%. The “T/C (mean survival treated/control)” value (murine B16 melanoma; 4 mg/kg i.p. daily×5) was 212%, the “Tox Deaths” value (murine B16 melanoma; 4 mg/kg i.p. daily×5) was 0/10 and the “ΔWeight (%)” value (murine B16 melanoma; 4 mg/kg i.p. daily×5) was -7.0%. The Survivors (murine B16 melanoma; 4 mg/kg i.p. daily×5) was 0/10, the 30-day survivors (murine P388 leukemia; 4 mg/kg daily×5) was “Three” and the “T/C (mean survival treated/control)” value (murine P388 leukemia; 4 mg/kg i.p. daily×5) was 297%. For the same compound, the “Tox Deaths” value (murine P388 leukemia; 4 mg/kg i.p. daily×5) was 0/10, the “ΔWeight (%)” value (murine P388 leukemia; 4 mg/kg i.p. daily×5) was -6.6% and the Survivors (murine P388 leukemia; 4 mg/kg i.p. daily×5, 30-day) was 3/10. For the same compound, the “efficacy vs P388 leukemia” value (murine P388 leukemia; i.p. five day schedule, in words) was “comparable to that produced by HAR 6”, the weight loss ([1]; 4 mg/kg) was 15% and the “Tox Deaths” value ([1]; 4 mg/kg i.p. daily×5) was 0/10. The “ΔWeight (%)” value ([1]; 4 mg/kg i.p. daily×5) was -15.4%, the mean tumor shrinkage ([1]; 4 mg/kg i.p. daily×5, all 10 mice, HAR 6 experiment) was 94% and the “Shrinkage (animals)” value ([1]; 4 mg/kg i.p. daily×5, partial (94%)) was 6/10. The “mice with tumor shrinkage” value ([1]; 4 mg/kg, HAR 6 experiment) was 10, the mortality ([1]; 4 mg/kg, HAR 6 experiment) was “no mortality” and the complete regressions ([1]; 4 mg/kg, second experiment) was “one”. For the same compound, the drug-related deaths ([1]; 4 mg/kg, second experiment) was “one”, the “mice with tumor growth inhibition” value ([1]; 4 mg/kg, second experiment) was “two” and the partial responders ([1]; 4 mg/kg, second experiment) was “six”. The “Shrinkage (animals)” value ([1]; 4 mg/kg, complete (100%) shrinkage) was 1/10, the tumor growth inhibition ([1]; 4 mg/kg, two mice, second experiment) was 94% and the “SR(%) (Tumor Shrinkage Rate)” value ([1]; in vivo) was 94% and 100%. For the same compound, the Deaths ([2]; 4 mg/kg × 5 days) was 0/10, the “Shrink (% Tumor Shrinkage Rate)” value ([2]; 4 mg/kg × 5 days) was 55% and the “Shrink (number of animals)” value ([2]; 4 mg/kg × 5 days) was 2/10. For the same compound, the “TGI (% Tumor Growth Inhibition Rate)” value ([2]; 4 mg/kg × 5 days) was 66%, the “TGI (number of animals)” value ([2]; 4 mg/kg × 5 days) was 8/10 and the Deaths ([2]; 8 mg single ds) was 0/10. The “Shrink (number of animals)” value ([2]; 8 mg single ds) was 0/10, the “TGI (number of animals)” value ([2]; 8 mg single ds) was 0/10 and the “efficacy, single dose” value ([2]; single dose, in words) was “completely ineffective”. For the same compound, the Deaths ([3]; 3 mg/kg × 5 days) was 0/10, the “Shrink (number of animals)” value ([3]; 3 mg/kg × 5 days) was 0/10 and the “TGI (% Tumor Growth Inhibition Rate)” value ([3]; 3 mg/kg × 5 days) was 35%. For the same compound, the “TGI (number of animals)” value ([3]; 3 mg/kg × 5 days) was 10/10, the Deaths ([3]; 8 mg single ds) was 0/10 and the “Shrink (number of animals)” value ([3]; 8 mg single ds) was 0/10. The “TGI (number of animals)” value ([3]; 8 mg single ds) was 0/10, the “efficacy, single dose” value ([3]; single dose, in words) was “completely ineffective” and the water solubility [4] was 1000 µg/mL. For the same compound, the IC50 (topoisomerase I) was 1100 nM, the “topoisomerase I IC50” value (topoisomerase I) was 0.504 µg/mL and the “in vivo antitumor efficacy” value (P388 murine leukemia) was “superior to unmodified camptothecin”. The “in vivo antitumor efficacy” value (Lewis lung carcinoma) was “superior to unmodified camptothecin”, the “in vivo antitumor efficacy” value (B16 murine melanoma) was “superior to unmodified camptothecin” and the “side effects in human clinical studies” value [5] was “myelosuppression, neutropenia, and thrombocytopenia”. For the same compound, the “anti-tumor effect in vitro” value (carcinoma cells) was “significant anti-tumor effects” and the “effectiveness against tumor growth in animal studies” value (tumor growth) was “at least as good or better than camptothecin”.
